Structures can show the parent of a compound that is named as a salt.

Series [1] can be described thus: LD50/24 h by the method of Miller & Tainter, intravenous route, mice. The note with it: mouse, in vivo, read-out: LD50 /24 h/kg of body weight.
Series [2] can be described thus: Triton test (hypocholesterolemic action). Type of series: in vivo, rat. The settings on record: 100 mg/kg oral, rat, 18 hours after Triton. The method, then: The intravenous injection of Triton W-R 1339 (an alkylaryl polyetheralcohol sold by Rohm and Haas) enables one to artifically increase, in the rat, certain lipidic fractions of serum and thus to evalute the hypocholesterolemic action of the compounds of the invention. […]
Eighteen hours later a blood sample is taken and the β-lipoproteins, the free cholesterol and the cholesterol are determined.
This test, which enables one to evaluate the hypocholesterolemic action of the derivatives to be tested, on serum levels of certain lipid fractions, has shown the remarkable effect of the compounds according to the invention.

Series [3] in a line: Propyl-thiouracil test (hypocholesterolemic action). Type of series: in vivo, rats. The note with it: 100 mg/kg oral, rats, 11th day; for Free cholesterol: control 0.20 g/l; for Total cholesterol: control 0.86 g/l. The method, then: a. Propyl-thiouracil test (RANNEY et Coll. J. Pharmacol. Exper. Therap. 1963, 142, 132-136)
The administration of propyl-thiouracil to adult rats renders them hypercholesterolemic; in effect, the plasmatic cholesterol rate has increased by about 15%. The testing is carried out on two groups of rats, the control group receiving the propyl-thiouracil only whilst the treated group also receives 100 mg/kg of the compounds to be tested, by the oral route.
On the 11th day of the experiment, the blood samples are taken and the β-lipoproteins, the free cholesterol and the total cholesterol measured.
a. Propyl-thiouracil test (Ranney et Coll. J. Pharmacol. Exper. Therap. 1963, 142, 132-136)
This test has shown the clearly favourable action of the derivatives according to the invention, at a dose of […].

On to `CCN(CC)CC=C1CN=C(NC2CCCCC2)S1` [Derivative No. 1, 2-cyclohexylamino 5-β-diethylaminoethylidene Δ^2-thiazoline], for which the LD50 at 24 h in series [1] amounted to 42 mg/kg. Also, in series [2], the “reduction of free cholesterol and of total cholesterol” value is recorded as around 28%. In series [3], the “Free cholesterol” value worked out at 0.14 g/L and the “Total cholesterol” value amounted to 0.60 g/L.
In the case of `CCN(CC)CC=C1CN=C(N2CCN(C)CC2)S1` [Derivative No. 12, 5-(2-diethylaminoethylidene) 2-(4-methyl 1-piperazinyl) Δ^2-thiazoline tetrahydrochloride], the LD50 at 24 h in series [1] was found to be 90 mg/kg. The “reduction of free cholesterol and of total cholesterol” value in series [2] was around 26%. In addition, in series [3], the “Free cholesterol” value came to 0.15 g/L and the “Total cholesterol” value came out at 0.61 g/L.
Consider `CCN(CC)CC=C1CN=C(NC)S1` [Derivative No. 21, 5-(β-diethylaminoethylidene) 2-methylamino Δ^2-thiazoline oxalate], for which the LD50 at 24 h in series [1] was 92 mg/kg.
